Assay results reported in patent US11267825B2 (AICURIS GMBH & CO. KG, priority 2017, dated 2022).

What was measured:
HBV core protein = HBV core protein (UniProt P03146); format: biochemical; conditions: read-out: Assembly Activity (IC50); BODIPY-FL labelled core protein, assembly started with NaCl, read after 6 min
Outline: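 Fluorescence-quenching assembly assay using E. coli-expressed core protein 1–149 plus Cys150, labelled with BODIPY-FL maleimide, at 1.0–2.0 μM in 50 mM HEPES pH 7.5, 0.5% DMSO. Assembly started with NaCl to […]; fluorescence (ex 477/em 525 nm) read after 6 min. EC50 by non-linear regression, 8-point 0.5-log dilutions.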

HBV = experiment: Determination of HBV DNA from the supernatants of HepAD38 cells (anti-HBV activity); format: cell-based, hepatitis B virus; conditions: Hepatitis B virus, 144 h; HBV DNA in HepAD38 supernatant at day 6; read-out: Cell Activity (EC50)
Outline: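 HepAD38 cells (60,000/well) were treated with half-log compound dilutions in tetracycline-free medium to induce HBV production. On day 6, HBV DNA was purified from filtered supernatant and quantified by real-time PCR against plasmid standards. EC50 values came from non-linear regression of relative copy numbers, typically from three experiments in triplicate.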

Chain of HBV core protein (P03146 whole entry, looked up): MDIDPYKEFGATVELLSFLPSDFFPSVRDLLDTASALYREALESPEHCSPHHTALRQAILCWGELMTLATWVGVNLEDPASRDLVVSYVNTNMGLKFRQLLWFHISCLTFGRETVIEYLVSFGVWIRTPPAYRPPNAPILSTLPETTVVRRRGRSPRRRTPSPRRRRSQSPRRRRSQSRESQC

## O=C(c1cc2ccccc2[nH]1)N1CCc2nc(NCC(CO)C3CC3)sc2C1 (centres unmarked) [Example 284, 2-cyclopropyl-3-{[5-(1H-indole-2-carbonyl)-4H,5H,6H,7H-[1,3]thiazolo[5,4-c]pyridin-2-yl]amino}propan-1-ol]
HBV core protein
  IC50: < 5 µM
HBV
  EC50: < 1 µM

## O=C(c1cc2ccccc2[nH]1)N1CCc2nc(NC3CCC(O)CC3)sc2C1 (centres unmarked) [Example 67, 4-{[5-(1H-indole-2-carbonyl)-4H,5H,6H,7H-[1,3]thiazolo[5,4-c]pyridin-2-yl]amino}cyclohexan-1-ol]
HBV core protein
  IC50: < 5 µM
HBV
  EC50: < 1 µM

## O=C(Nc1nc2c(s1)CN(C(=O)c1cc3ccc(Cl)cc3[nH]1)CC2)C1CCOCC1 [Example 318, N-[5-(6-chloro-1H-indole-2-carbonyl)-4H,5H,6H,7H-[1,3]thiazolo[5,4-c]pyridin-2-yl]oxane-4-carboxamide]
HBV core protein
  IC50: < 5 µM
HBV
  EC50: < 1 µM

## O=C(CC1CCOCC1)Nc1nc2c(s1)CN(C(=O)c1cc3ccccc3[nH]1)CC2 [Example 20, N-[5-(1H-indole-2-carbonyl)-4H,5H,6H,7H-[1,3]thiazolo[5,4-c]pyridin-2-yl]-2-(oxan-4-yl)acetamide]
HBV core protein
  IC50: < 5 µM
HBV
  EC50: < 1 µM

## CC1(CNc2nc3c(s2)CN(C(=O)c2cc4ccccc4[nH]2)CC3)CCOC1 (centres unmarked) [Example 49, 5-(1H-indole-2-carbonyl)-N-[(3-methyloxolan-3-yl)methyl]-4H,5H,6H,7H-[1,3]thiazolo[5,4-c]pyridin-2-amine]
HBV core protein
  IC50: < 5 µM
HBV
  EC50: < 1 µM

## NC(=O)c1nc2c(s1)CN(C(=O)c1cc3ccccc3[nH]1)CC2 [Example 201, 5-(1H-indole-2-carbonyl)-4H,5H,6H,7H-[1,3]thiazolo[5,4-c]pyridine-2-carboxamide]
HBV core protein
  IC50: < 100 µM
HBV
  EC50: 1 to 10 µM

## Cc1nc2c(s1)CN(C(=O)c1cc3c(Cl)cc(Cl)cc3[nH]1)CC2 [Example 188, 4,6-dichloro-2-{2-methyl-4H,5H,6H,7H-[1,3]thiazolo[5,4-c]pyridine-5-carbonyl}-1H-indole]
HBV core protein
  IC50: 5 to 10 µM
HBV
  EC50: 1 to 10 µM

## O=C(c1cc2c(Cl)cc(F)cc2[nH]1)N1CCc2nc(NCC3(CO)CC3)sc2C1 [Example 60, [1-({[5-(4-chloro-6-fluoro-1H-indole-2-carbonyl)-4H,5H,6H,7H-[1,3]thiazolo[5,4-c]pyridin-2-yl]amino}methyl)cyclopropyl]methanol]
HBV core protein
  IC50: < 5 µM
HBV
  EC50: < 1 µM

## O=C(c1cc2ccccc2[nH]1)N1CCc2nc(N[C@H]3CC[C@@H](O)C3)sc2C1 [Example 396, (1R,3S)-3-{[5-(1H-indole-2-carbonyl)-4H,5H,6H,7H-[1,3]thiazolo[5,4-c]pyridin-2-yl]amino}cyclopentan-1-ol]
HBV core protein
  IC50: < 5 µM
HBV
  EC50: < 1 µM

## O=C(c1cc2ccccc2[nH]1)N1CCc2nc(NCC3(CO)CCOCC3)sc2C1 [Example 237, [4-({[5-(1H-indole-2-carbonyl)-4H,5H,6H,7H-[1,3]thiazolo[5,4-c]pyridin-2-yl]amino}methyl)oxan-4-yl]methanol]
HBV core protein
  IC50: < 5 µM
HBV
  EC50: < 1 µM

## Cc1cc(F)cc2[nH]c(C(=O)N3CCc4nc(NC5(CO)CCC5)sc4C3)cc12 [Example 298, (1-{[5-(6-fluoro-4-methyl-1H-indole-2-carbonyl)-4H,5H,6H,7H-[1,3]thiazolo[5,4-c]pyridin-2-yl]amino}cyclobutyl)methanol]
HBV core protein
  IC50: < 5 µM
HBV
  EC50: < 1 µM

## O=C(c1cc2ccccc2[nH]1)N1CCc2nc(N[C@H]3CC[C@@H](O)CC3)sc2C1 [Example 45, (1s,4s)-4-{[5-(1H-indole-2-carbonyl)-4H,5H,6H,7H-[1,3]thiazolo[5,4-c]pyridin-2-yl]amino}cyclohexan-1-ol]
HBV core protein
  IC50: < 5 µM
HBV
  EC50: < 1 µM

## O=C(c1cc2ccccc2[nH]1)N1CCc2nc(NC3CC(F)(F)C3)sc2C1 [Example 416, N-(3,3-difluorocyclobutyl)-5-(1H-indole-2-carbonyl)-4H,5H,6H,7H-[1,3]thiazolo[5,4-c]pyridin-2-amine]
HBV core protein
  IC50: 5 to 10 µM
HBV
  EC50: < 1 µM

## O=C(c1cc2ccc(Cl)cc2[nH]1)N1CCc2nc(NCC3CCOC3)sc2C1 (centres unmarked) [Example 125, 5-(6-chloro-1H-indole-2-carbonyl)-N-[(oxolan-3-yl)methyl]-4H,5H,6H,7H-[1,3]thiazolo[5,4-c]pyridin-2-amine]
HBV core protein
  IC50: < 5 µM
HBV
  EC50: < 1 µM

## Cc1nc2c(s1)CN(C(=O)c1cc3cccc(Cl)c3[nH]1)CC2 [Example 189, 7-chloro-2-{2-methyl-4H,5H,6H,7H-[1,3]thiazolo[5,4-c]pyridine-5-carbonyl}-1H-indole]
HBV core protein
  IC50: 5 to 10 µM
HBV
  EC50: 1 to 10 µM

## Nc1nc2c(s1)CN(C(=O)c1cc3c(C(F)F)cc(F)cc3[nH]1)CC2 [Example 292, 5-[4-(difluoromethyl)-6-fluoro-1H-indole-2-carbonyl]-4H,5H,6H,7H-[1,3]thiazolo[5,4-c]pyridin-2-amine]
HBV core protein
  IC50: < 5 µM
HBV
  EC50: < 1 µM

## Nc1nc2c(s1)CN(C(=O)c1cc3c(CO)cccc3[nH]1)CC2 [Example 9, (2-{2-amino-4H,5H,6H,7H-[1,3]thiazolo[5,4-c]pyridine-5-carbonyl}-1H-indol-4-yl)methanol]
HBV core protein
  IC50: 5 to 10 µM
HBV
  EC50: 1 to 10 µM

## CCc1cc(F)cc2[nH]c(C(=O)N3CCc4nc(N)sc4C3)cc12 [Example 7, 5-(4-ethyl-6-fluoro-1H-indole-2-carbonyl)-4H,5H,6H,7H-[1,3]thiazolo[5,4-c]pyridin-2-amine]
HBV core protein
  IC50: < 5 µM
HBV
  EC50: < 1 µM

## Nc1nc2c(s1)CN(C(=O)c1cc3c(F)cc(Br)cc3[nH]1)CC2 [Example 143, 5-(6-bromo-4-fluoro-1H-indole-2-carbonyl)-4H,5H,6H,7H-[1,3]thiazolo[5,4-c]pyridin-2-amine]
HBV core protein
  IC50: < 5 µM
HBV
  EC50: < 1 µM

## O=C1CCC(CNc2nc3c(s2)CN(C(=O)c2cc4ccccc4[nH]2)CC3)N1 (centres unmarked) [Example 404, 5-({[5-(1H-indole-2-carbonyl)-4H,5H,6H,7H-[1,3]thiazolo[5,4-c]pyridin-2-yl]amino}methyl)pyrrolidin-2-one]
HBV core protein
  IC50: < 5 µM
HBV
  EC50: < 1 µM

## O=C(c1cc2ccccc2[nH]1)N1CCc2nc(NCC3(O)CC3)sc2C1 [Example 405, 1-({[5-(1H-indole-2-carbonyl)-4H,5H,6H,7H-[1,3]thiazolo[5,4-c]pyridin-2-yl]amino}methyl)cyclopropan-1-ol]
HBV core protein
  IC50: < 5 µM
HBV
  EC50: < 1 µM

## CCc1cc(F)cc2[nH]c(C(=O)N3CCc4nc(NC(=O)C5CCOCC5)sc4C3)cc12 [Example 403, N-[5-(4-ethyl-6-fluoro-1H-indole-2-carbonyl)-4H,5H,6H,7H-[1,3]thiazolo[5,4-c]pyridin-2-yl]oxane-4-carboxamide]
HBV core protein
  IC50: < 5 µM
HBV
  EC50: < 1 µM

## CC(F)(F)c1cc(F)cc2[nH]c(C(=O)N3CCc4nc(NC(=O)C5CCOCC5)sc4C3)cc12 [Example 401, N-{5-[4-(1,1-difluoroethyl)-6-fluoro-1H-indole-2-carbonyl]-4H,5H,6H,7H-[1,3]thiazolo[5,4-c]pyridin-2-yl}oxane-4-carboxamide]
HBV core protein
  IC50: < 5 µM
HBV
  EC50: < 1 µM

## O=C(c1cc2c(F)ccc(F)c2[nH]1)N1CCc2nc(NCC3(CO)CC3)sc2C1 [Example 59, [1-({[5-(4,7-difluoro-1H-indole-2-carbonyl)-4H,5H,6H,7H-[1,3]thiazolo[5,4-c]pyridin-2-yl]amino}methyl)cyclopropyl]methanol]
HBV core protein
  IC50: < 5 µM
HBV
  EC50: < 1 µM

## O=C(Nc1nc2c(s1)CN(C(=O)c1cc3ccccc3[nH]1)CC2)C1CCCCO1 (centres unmarked) [Example 315, N-[5-(1H-indole-2-carbonyl)-4H,5H,6H,7H-[1,3]thiazolo[5,4-c]pyridin-2-yl]oxane-2-carboxamide]
HBV core protein
  IC50: 5 to 10 µM
HBV
  EC50: < 1 µM

## O=C(c1cc2ccccc2[nH]1)N1CCc2nc(N3CC4COCCN4C3)sc2C1 (centres unmarked) [Example 295, 2-(2-{hexahydro-1H-imidazo[4,3-c][1,4]oxazin-2-yl}-4H,5H,6H,7H-[1,3]thiazolo[5,4-c]pyridine-5-carbonyl)-1H-indole]
HBV core protein
  IC50: < 100 µM
HBV
  EC50: 1 to 10 µM

## CCc1ccc(F)c2[nH]c(C(=O)N3CCc4nc(NCC5CCOC5)sc4C3)cc12 (centres unmarked) [Example 254, 5-(4-ethyl-7-fluoro-1H-indole-2-carbonyl)-N-[(oxolan-3-yl)methyl]-4H,5H,6H,7H-[1,3]thiazolo[5,4-c]pyridin-2-amine]
HBV core protein
  IC50: < 5 µM
HBV
  EC50: < 1 µM

## CC(C)c1cccc2[nH]c(C(=O)N3CCc4nc(N)sc4C3)cc12 [Example 12, 5-[4-(propan-2-yl)-1H-indole-2-carbonyl]-4H,5H,6H,7H-[1,3]thiazolo[5,4-c]pyridin-2-amine]
HBV core protein
  IC50: < 5 µM
HBV
  EC50: < 1 µM

## O=C(c1cc2ccccc2[nH]1)N1CCc2nc(NCC(F)(F)CO)sc2C1 [Example 225, 2,2-difluoro-3-{[5-(1H-indole-2-carbonyl)-4H,5H,6H,7H-[1,3]thiazolo[5,4-c]pyridin-2-yl]amino}propan-1-ol]
HBV core protein
  IC50: < 5 µM
HBV
  EC50: < 1 µM

## O=C(c1cc2ccccc2[nH]1)N1CCc2nc(NCCN3CCOCC3)sc2C1 [Example 36, 5-(1H-indole-2-carbonyl)-N-[2-(morpholin-4-yl)ethyl]-4H,5H,6H,7H-[1,3]thiazolo[5,4-c]pyridin-2-amine]
HBV core protein
  IC50: 5 to 10 µM
HBV
  EC50: 1 to 10 µM

## CC(C)[C@H](N)C(=O)OCC1(CNc2nc3c(s2)CN(C(=O)c2cc4ccccc4[nH]2)CC3)CC1 [Example 235, [1-({[5-(1H-indole-2-carbonyl)-4H,5H,6H,7H-[1,3]thiazolo[5,4-c]pyridin-2-yl]amino}methyl)cyclopropyl]methyl (2S)-2-amino-3-methylbutanoate]
HBV core protein
  IC50: < 5 µM
HBV
  EC50: < 1 µM
